Assay results: patent US20150216870A1, “Combination of PI3K Inhibitor and C-Met Inhibitor” (Novartis AG, priority 2012, published 2015)

Assays:
[1] = tested on: U-87 MG human glioblastoma xenograft; test: U-87 MG xenograft tumor growth inhibition and tumor growth delay; assay type: in vivo, nude mice; conditions: for T/C or T/T0: D13; for Median TTE: endpoint 2000 mm3; for Regress.: PR: number of animals
Experimental: In this experiment, the U-87 MG human glioblastoma xenograft model is used to assess the anti-tumor efficacy of the PI3K inhibitor COMPOUND C and c-Met inhibitor 2-fluoro-N-methyl-4-[7-quinolin-6-yl-methyl)-imidazo[1,2-b][1,2,4]triazin-2yl]benzamide as single agents or in combination. U-87 MG tumor cells obtained from the National Cancer Institute are reported to be homozygous for likely oncogenic variants of CDKN2A, CDKN2C, CDKN2a, and PTEN; no mutations are detected in MET, PIK3CA, or 58 other genes that are frequently altered in neoplastic cells; and HGF expressing.
Mice are treated daily for 21 days with 17.7 and 35.3 mg/kg of the c-Met inhibitor and 32.7 mg/kg COMPOUND C monotherapies, and with the c-Met inhibitor/COMPOUND C dual therapy at 17.7:32.7. An c-Met inhibitor/COMPOUND C combination at the 58.8:5.4 mg/kg dose ratio was included in the study. The control mice received both vehicles, and a standard preclinical temozolomide regimen monitored tumor model performance. The oral treatments began on Day 1 (D1) in nude mice with established subcutaneous tumors. Each animal was euthanized when its tumor reached the predetermined 2000 mm3 endpoint volume, or on D60, whichever came first. The study was terminated on D51. […] Overall efficacy was determined from the times required for tumors to progress to the volume endpoint, and from D51 survival and regression rates. This report describes the methods and results of the U87MG-e326 tumor growth delay experiment.
The animals are fed ad libitum water (reverse osmosis, 1 ppm CI) and NIH 31 Modified and Irradiated Lab Diet® consisting of 18.0% crude protein, 5.0% crude fat, and 5.0% crude fiber. The mice are housed on irradiated Enrich-O'cobs™ Laboratory Animal Bedding in static microisolators on a 12-hour light cycle at 20-22° C. (68-72° F.) and 40-60% humidity.
The U-87 MG tumor line is obtained from the American Type Culture Collection and maintained by serial engraftment in nude mice. A tumor fragment (1 mm^3) is implanted subcutaneously into the right flank of each test mouse. Tumors are calipered in two dimensions to monitor growth as their mean volume approached the desired 100-150 mm^3 range. Tumor size, in mm^3, was calculated from: Tumor Volume=(width^2×length)/2, where width and length (in mm) are measurements of the tumor. Tumor weight can be estimated with the assumption that 1 mg is equivalent to 1 mm^3 of tumor volume. Fourteen days after tumor cell implantation, on D1 of the study, mice with individual tumor volumes of 63-196 mm^3 are sorted into seven groups, with group mean tumor volumes of 122-127 mm^3.
The c-Met inhibitor 2-fluoro-N-methyl-4-[7-quinolin-6-yl-methyl)-imidazo[1,2-b][1,2,4]triazin-2yl]benzamide (di-HCl salt, 84.98% free base) is stored at 4° C. and is added to deionized water at 2× the final concentration and sonicated until dissolved. An equal volume of 0.5% methylcellulose and 0.1% Tween® 80 in deionized water is added to provide a 5.884 mg/mL dosing solution in 0.25% methylcellulose and 0.05% Tween® 80 in deionized water (Vehicle 1). Portions of this solution are diluted with Vehicle 1 to provide 3.53 and 1.765 mg/mL dosing solutions.
COMPOUND C (HCl salt, 91.85% free base) is stored at −20° C. and is added to 1% Tween® 80 in deionized water and sonicated to obtain a uniform suspension at 2× the final concentration. […] The 0.544 mg/mL dosing suspension is obtained by diluting a portion of the first suspension with Vehicle 2.

[2] = tested on: A172; test: CellTiter-Glo cell viability dose matrix in A172 glioblastoma cells; assay type: cell-based, human; conditions: A172 (PTEN mutant, low HGF)
Experimental: (§1) The PI3K inhibitor COMPOUND C and the c-MET receptor tyrosine kinase inhibitor 2-fluoro-N-methyl-4-[7-quinolin-6-yl-methyl)-imidazo[1,2-b][1,2,4]triazin-2yl]benzamide are evaluated in combination in glioblastoma tumor models. COMPOUND C (10 mM) and 2-fluoro-N-methyl-4-[7-quinolin-6-yl-methyl)-imidazo[1,2-b][1,2,4]triazin-2yl]benzamide (10 mM) are dissolved in DMSO, and are stored in aliquots at −20° C.
(§2) Human Glioblastoma cell lines, U-87 MG (PTEN mutant and HGF expressing line), H4 (PTEN mutant and HGF expressing line), A172 (PTEN mutant line with low HGF expression level) and LN-229 (PTEN wildtype and HGF low) are purchased from American Type Cell Collection and are maintained in a humidified incubator at 37° C. in 5% CO2 in recommended media. All four cell lines express detected MET at the mRNA level.
(§3) The cells are passaged twice a week and the medium is changed every 2 to 3 days. […]
(§4) Cell viability is determined by measuring cellular ATP content using the CellTiter-Glo® (CTG) luminescent cell viability assay (Promega). […] An equal volume of the CTG reagents is added to each well at the end of the compound treatment and luminescence is recorded on an Envision plate reader (Perkin Elmer). Reduced and enhanced luminescent signal values (responses) are calculated relative to untreated (control) cells. […]

[3] = tested on: LN-229; test: CellTiter-Glo cell viability dose matrix in LN-229 glioblastoma cells; assay type: cell-based, human; conditions: LN229 (PTEN wildtype, HGF low)
Experimental: as §1, §2, §3, §4

[4] = Toxicity (body weight, deaths) in NCI-H1993 xenograft study; assay type: in vivo; conditions: c-Met inhibitor 17.7 mg/kg p.o. b.i.d. to end
Experimental: Animals are weighed on Days 1-5, on each treatment day (except weekends), and twice weekly thereafter, until the end of the study. The maximum group mean body weight (BW) loss is determined for the interval between D1 and D20 as well as for the entire study. Group mean BW nadir determinations exclude measurements taken after more than 50% of the assessable mice in the group have exited the study, and also exclude any animal that was classified as a non-treatment related (NTR) death during the study. Acceptable toxicity for the maximum tolerated dose (MTD) is defined as a group mean BW loss of less than 15% during the test, and not more than one TR death among ten animals. Any animal with BW losses exceeding 15% for three consecutive measurements, or with a BW loss exceeding 20% for one measurement, are euthanized, and classified as a TR death unless it was the first death in the group. A death is classified as NTR if there was no evidence that the death is related to treatment side effects and the death occurs more than 14 days after dosing ended. NTR deaths are categorized as NTRa (due to accident or error), NTRu (due to unknown causes), or NTRm (necropsy-confirmed tumor dissemination by invasion and/or metastasis). To conserve animals while providing maximum information, the first death in a group was classified as NTRu; such an NTR death was to be reclassified as TR if two subsequent TR deaths are recorded in the same group.

[5] = tested on: H4; test: CellTiter-Glo cell viability dose matrix in H4 glioblastoma cells; assay type: cell-based, human; conditions: H4 (PTEN mutant, HGF expressing)
Experimental: as §1, §2, §3, §4

[6] = c-Met inhibitor 17.7 mg/kg (15 mg/kg free base) p.o. qd x21
[7] = c-Met inhibitor 35.3 mg/kg (30 mg/kg free base) p.o. qd x21

For `CNC(=O)c1ccc(-c2cnc3ncc(Cc4ccc5ncccc5c4)n3n2)cc1F` [c-Met inhibitor], the “increase of median TTE” value ([1]; c-Met inhibitor 15 mg/kg free base p.o. qd x21) was 21.4 days, the “% TGD” value [1, 6] was 183% and the “T/C or T/T0” value [1, 6] was 5%. For the same compound, the “T/C or T/T0” value ([1]; c-Met inhibitor 17.7 mg/kg (15 mg/kg free base) p.o. qd x21, listed as c-Met inh.) was 5%, the “Median TTE” value [1, 6] was 33.1 days and the “Regress.: PR” value ([1]; c-Met inhibitor 17.7 mg/kg p.o. qd x21) was 4 PR. For the same compound, the “increase of median TTE” value ([1]; c-Met inhibitor 30 mg/kg free base p.o. qd x21) was 23.4 days, the “% TGD” value [1, 7] was 200% and the “T/C or T/T0” value [1, 7] was 1%. For the same compound, the “T/C or T/T0” value ([1]; c-Met inhibitor 35.3 mg/kg (30 mg/kg free base) p.o. qd x21, listed as c-Met inh.) was 1%, the “Median TTE” value [1, 7] was 35.1 days and the “Regress.: PR” value ([1]; c-Met inhibitor 35.3 mg/kg p.o. qd x21) was 4 PR. For the same compound, the “anti-proliferative activity (single agent)” value (“anti-proliferative activity” below) [2] was “completely inactive”, the “anti-proliferative activity” value [3] was “completely inactive” and the “Deaths: NTR” value [4] was “(1 NTR)”. For the same compound, the “deaths due to individual body weight losses” value [4] was “One” and the “anti-proliferative activity” value [5] was “only moderate activities”.
